Laboratory results from publication PMC7377239, “Cardiovascular Effects of Polychlorinated Biphenyls and Their Major Metabolites” (Environmental Health Perspectives, 2020).
Like-named read-outs stand apart in the source and are kept apart here.

Test system: iCell cardiomyocytes (human iPSC-derived cardiomyocytes)
Assay: Intracellular Ca2+ flux / beating parameters in iCell cardiomyocytes (FLIPR tetra), 90 min or 24 h
Assay type: cell-based
Details: Homo sapiens, Cardiomyocyte, 0.00 µM = 100.00; for activity at 0.1 µM: 0.10 µM
How it was run: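 PODs were defined as the concentration crossing one SD of the vehicle-control means (0.5% DMSO) on four-parameter logistic fits of Ca2+ trace metrics (peak height, frequency, peak-spacing CV, decay/rise ratio). Traces came from 100 s, 8 Hz FLIPR reads at 37 °C on calcium-dye-loaded iCell cardiomyocytes. Before reading, cells were treated for 90 min or 24 h from 5× chemical plates spanning 0.05–500 µM, in triplicate.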

[1] = 1.5 h, 90min, read-out: cm.amp.avg.90min
[2] = 1.5 h, 90min, read-out: cm.amp.cv.90min
[3] = 1.5 h, 90min, read-out: cm.bpm.90min
[4] = 1.5 h, 90min, read-out: cm.decay.rise.90min
[5] = 1.5 h, 90min, read-out: cm.spacing.cv.90min
[6] = 24 h, 24hrs, read-out: cm.amp.avg.24hrs
[7] = 24 h, 24hrs, read-out: cm.amp.cv.24hrs
[8] = 24 h, 24hrs, read-out: cm.bpm.24hrs
[9] = 24 h, 24hrs, read-out: cm.decay.rise.24hrs
[10] = 24 h, 24hrs, read-out: cm.spacing.cv.24hrs

Question: What does the source list for Clc1cc(Cl)c(-c2cc(Cl)c(Cl)cc2Cl)cc1Cl [PCB153]?
Answer: activity at 0.01 µM [1]: 105%; activity at 0.01 µM [2]: 113%; activity at 0.01 µM [3]: 107%; activity at 0.01 µM [4]: 97.7%; activity at 0.01 µM [5]: 119%; activity at 0.1 µM [1]: 107%; activity at 0.1 µM [2]: 98.7%; activity at 0.1 µM [3]: 97.8%; activity at 0.1 µM [4]: 100%; activity at 0.1 µM [5]: 102%; activity at 1 µM [1]: 108%; activity at 1 µM [2]: 121%; activity at 1 µM [3]: 103%; activity at 1 µM [4]: 92.5%; activity at 1 µM [5]: 108%; activity at 10 µM [1]: 93.7%; activity at 10 µM [2]: 126%; activity at 10 µM [3]: 120%; activity at 10 µM [4]: 92.4%; activity at 10 µM [5]: 119%; activity at 100 µM [1]: 0%; activity at 100 µM [2]: 0%; activity at 100 µM [3]: 0%; activity at 100 µM [4]: 0%; activity at 100 µM [5]: 0%; activity at 0.01 µM [6]: 50.2%; activity at 0.01 µM [7]: 50.5%; activity at 0.01 µM [8]: 51.5%; activity at 0.01 µM [9]: 57.7%; activity at 0.01 µM [10]: 50.2%; activity at 0.1 µM [6]: 81.6%; activity at 0.1 µM [7]: 123%; activity at 0.1 µM [8]: 101%; activity at 0.1 µM [9]: 92.5%; activity at 0.1 µM [10]: 108%; activity at 1 µM [6]: 125%; activity at 1 µM [7]: 84.9%; activity at 1 µM [8]: 99.3%; activity at 1 µM [9]: 102%; activity at 1 µM [10]: 97.8%; activity at 10 µM [6]: 122%; activity at 10 µM [7]: 120%; activity at 10 µM [8]: 129%; activity at 10 µM [9]: 93%; activity at 10 µM [10]: 121%; activity at 100 µM [6]: 0%; activity at 100 µM [7]: 0%; activity at 100 µM [8]: 0%; activity at 100 µM [9]: 0%; activity at 100 µM [10]: 0%
